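Each compound was tested at five concentrations against cells in 96-well plates for 48 hours. At the GI50, growth is halved.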 Calls of active or inactive are those of the source. No stated cut-off is given here; in the data, active = GI50 up to about 1.1 µM and inactive = higher.
Legend:
Assay in all cases: inhibition of tumour cell growth, NCI panel, 48 h
ACHN = tested on: ACHN
HOP-92 = tested on: HOP-92
NCI-H23 = tested on: NCI-H23
SK-MEL-5 = tested on: SK-MEL-5
EKVX = tested on: EKVX
A549 = tested on: A549
NCI/ADR-RES = tested on: NCI/ADR-RES
UACC-62 = tested on: UACC-62
NCI-H226 = tested on: NCI-H226
786-0 = tested on: 786-0
OVCAR-4 = tested on: OVCAR-4
COLO 205 = tested on: COLO 205
OVCAR-3 = tested on: OVCAR-3
MDA-MB-435 = tested on: MDA-MB-435
RPMI-8226 = tested on: RPMI-8226
UO-31 = tested on: UO-31
NCI-H522 = tested on: NCI-H522
TK-10 = tested on: TK-10
SW-620 = tested on: SW-620
PC-3 = tested on: PC-3

Measured: GI50

O=C(OCC(OC(=O)c1ccccc1)C(OC(=O)c1ccccc1)C(OC(=O)c1ccccc1)c1cnn(-c2ccccc2)n1)c1ccccc1 (centres undefined)
inactive: ACHN > 100 µM | HOP-92 > 100 µM | NCI-H23 > 100 µM | SK-MEL-5 > 100 µM | EKVX > 100 µM | A549 > 100 µM | NCI/ADR-RES > 100 µM | UACC-62 > 100 µM | NCI-H226 > 100 µM | 786-0 > 100 µM | OVCAR-4 > 100 µM | COLO 205 > 100 µM | OVCAR-3 > 100 µM | MDA-MB-435 > 100 µM | RPMI-8226 > 100 µM | UO-31 > 100 µM | NCI-H522 > 100 µM | TK-10 > 100 µM | SW-620 > 100 µM

O=C(Cc1nc2ccc(C(=O)c3ccccc3)cc2nc1O)C(=O)Nc1ccc(C(F)(F)F)cc1[N+](=O)[O-]
inactive: ACHN > 100 µM | HOP-92 35.3 µM | NCI-H23 75 µM | SK-MEL-5 39.7 µM | EKVX 11.7 µM | A549 > 100 µM | UACC-62 38.9 µM | NCI-H226 87.1 µM | 786-0 > 100 µM | OVCAR-4 > 100 µM | COLO 205 45 µM | OVCAR-3 38.7 µM | RPMI-8226 42.5 µM | UO-31 61.2 µM | NCI-H522 31.3 µM | TK-10 > 100 µM | SW-620 47.4 µM

COc1ccc(-c2nc(Sc3c([N+](=O)[O-])ncn3C)n[nH]2)cc1
inactive: ACHN 3.61 µM | HOP-92 2.55 µM | NCI-H23 1.77 µM | SK-MEL-5 2.65 µM | EKVX 20.7 µM | A549 12.4 µM | UACC-62 3.08 µM | NCI-H226 13.4 µM | 786-0 3.27 µM | OVCAR-4 8.24 µM | COLO 205 1.82 µM | OVCAR-3 1.94 µM | RPMI-8226 3.66 µM | UO-31 5.13 µM | NCI-H522 2.27 µM | TK-10 6.17 µM | SW-620 3.26 µM

O=C(Cn1ccnc1[N+](=O)[O-])c1ccc(F)cc1
inactive: ACHN > 100 µM | HOP-92 > 100 µM | NCI-H23 > 100 µM | SK-MEL-5 > 100 µM | EKVX > 100 µM | A549 > 100 µM | UACC-62 > 100 µM | NCI-H226 > 100 µM | 786-0 > 100 µM | OVCAR-4 > 100 µM | COLO 205 > 100 µM | OVCAR-3 > 100 µM | RPMI-8226 > 100 µM | UO-31 > 100 µM | NCI-H522 > 100 µM | TK-10 > 100 µM | SW-620 > 100 µM

CC1CN=C(N(Cc2ccc(F)cc2)C(=O)Nc2ccc(Cl)cc2)S1 (centres undefined)
inactive: ACHN 6.68 µM | NCI-H23 26.9 µM | SK-MEL-5 13.7 µM | EKVX 16.2 µM | A549 21.4 µM | NCI/ADR-RES 12.5 µM | 786-0 20.5 µM | OVCAR-4 13.3 µM | PC-3 23 µM | COLO 205 30.3 µM | OVCAR-3 20.2 µM | RPMI-8226 43.4 µM | UO-31 35.2 µM | TK-10 21.8 µM | SW-620 22.5 µM

O=c1[nH]c(=O)n(C2OC(CO)C(O)C2O)cc1OCCCc1ccccc1 (centres undefined)
inactive: ACHN > 100 µM | NCI-H23 > 100 µM | SK-MEL-5 > 100 µM | EKVX > 100 µM | A549 > 100 µM | NCI/ADR-RES > 100 µM | UACC-62 > 100 µM | NCI-H226 > 100 µM | 786-0 > 100 µM | OVCAR-4 > 100 µM | PC-3 > 100 µM | COLO 205 > 100 µM | OVCAR-3 > 100 µM | MDA-MB-435 > 100 µM | TK-10 > 100 µM | SW-620 > 100 µM

Cc1cc(C)nc(NS(=O)(=O)c2ccc(NC(=O)COC(=O)c3cccc4c(=O)c5ccccc5[nH]c34)cc2)n1
inactive: ACHN 47.5 µM | HOP-92 31.1 µM | NCI-H23 29.7 µM | SK-MEL-5 40.6 µM | EKVX 54.2 µM | A549 > 100 µM | UACC-62 19.5 µM | NCI-H226 53.3 µM | 786-0 19.1 µM | OVCAR-4 49.1 µM | COLO 205 48.8 µM | OVCAR-3 23.6 µM | RPMI-8226 35.7 µM | UO-31 61.9 µM | NCI-H522 27.2 µM | TK-10 76.4 µM | SW-620 31.8 µM

CC(=O)OC1CC[C@@]2(C)C(CC(OC3OC(CO)C(O)C(O)C3O)[C@]3(C)C2CCC24CC23CC[C@H]4C(C)CC(O)[C@@H](O)C(C)(C)O)C1(C)C (some centres undefined)
inactive: ACHN > 50 µM | HOP-92 10 µM | NCI-H23 > 50 µM | SK-MEL-5 8.93 µM | EKVX 16.3 µM | A549 > 50 µM | UACC-62 9.2 µM | NCI-H226 17 µM | 786-0 13.1 µM | OVCAR-4 > 50 µM | COLO 205 9.4 µM | OVCAR-3 16.5 µM | RPMI-8226 10.3 µM | UO-31 > 50 µM | NCI-H522 8.63 µM | TK-10 22.9 µM | SW-620 16.6 µM

CC(C)(Oc1ccc(C2C[C@H]2Cl)cc1)C(=O)O (some centres undefined)
inactive: HOP-92 > 100 µM | SK-MEL-5 > 100 µM | EKVX > 100 µM | A549 > 100 µM | UACC-62 > 100 µM | 786-0 > 100 µM | OVCAR-4 > 100 µM | PC-3 > 100 µM | COLO 205 > 100 µM | OVCAR-3 > 100 µM | MDA-MB-435 > 100 µM | RPMI-8226 > 100 µM | NCI-H522 > 100 µM | TK-10 > 100 µM | SW-620 > 100 µM

O=S1(=O)C[C@@H](O)[C@H](O)CS1
inactive: ACHN > 100 µM | HOP-92 > 100 µM | NCI-H23 > 100 µM | SK-MEL-5 > 100 µM | EKVX > 100 µM | A549 > 100 µM | UACC-62 > 100 µM | NCI-H226 > 100 µM | 786-0 > 100 µM | OVCAR-4 > 100 µM | COLO 205 > 100 µM | OVCAR-3 > 100 µM | RPMI-8226 > 100 µM | UO-31 > 100 µM | NCI-H522 > 100 µM | TK-10 > 100 µM | SW-620 > 100 µM

c1ccc2c(c1)[nH]c1c2ncc2[nH]c3ccccc3c21
inactive: ACHN 4.24 µM | HOP-92 2.57 µM | NCI-H23 10.4 µM | SK-MEL-5 5.48 µM | EKVX 12.9 µM | A549 4.65 µM | UACC-62 1.76 µM | NCI-H226 14 µM | 786-0 2.32 µM | OVCAR-4 1.9 µM | COLO 205 2.45 µM | OVCAR-3 2.54 µM | RPMI-8226 2.26 µM | UO-31 4.05 µM | NCI-H522 4.74 µM | TK-10 7.33 µM | SW-620 2.9 µM
